Assay results reported in patent publication US20240360145A1, “PYRIMIDINE-2,4-DIAMINE DERIVATIVES AS WELL AS PREPARATION METHOD THEREFOR AND USE THEREOF” (LISEN THERAPEUTICS, INC., priority 2022, published 2024).
Counter-ions that a name gives are not always drawn. Like-named read-outs stand apart in the source and are kept apart here.

Tests used:
PE062 primary cells = test: Cell viability IC50 (CCK-8), primary cells PE062 from small cell lung cancer pleural effusion; assay type: cell-based; conditions: PE062, CCK-8
Experimental: (§1) (1) The pleural effusion was poured into a 15 mL or 50 mL of sterilized centrifuge tube for centrifugation. Centrifugation conditions: 800 to 1000 rpm, 5 min.
(§2) (2) The precipitate was resuspended and washed for 2 to 3 times with PBS.
(§3) (3) The cell precipitate was resuspended with complete culture medium (α-MEM medium containing 10% fetal bovine serum and 2% penicillin-streptomycin), and the flocculent matter in the pleural effusion was removed using a sterilized cell sieve.
(§4) (4) The red blood cells in the pleural effusion were removed with lymphocyte separation fluid, and the tumor cells and lymphocyte components were collected. The number of tumor cells was observed under a microscope, and the cells were inoculated.
(§5) (5) After 24 hours, the supernatant was discarded, and fresh culture medium was added for further culture.
(§6) (6) The cell growth status was observed, and it was determined based on the cell status whether the medium was required to be continuously changed to remove blood cells. When the cells grew to a density of 80% to 90%, the cells were preserved.
(§7) (1) Primary cells from lung cancer pleural effusion within 5 generations were cultured to the logarithmic growth phase. […] After centrifugation at room temperature, the supernatant was discarded, and the cell precipitate was resuspended with fresh complete culture medium. After counting, the cells were placed at room temperature for later use. The cells were inoculated into a 384-well plate at a density of 2000 cells/well with a volume of 40 μl/well. The wells at the outermost circle of the plate were not inoculated with cells, and instead, added with sterile water to reduce evaporation of the culture medium.
(§8) (2) After overnight culture of the cells, the medium was discarded, and a fresh medium containing different concentrations of compounds was added at 200 μl/well. The dilution method of the compound was as follows: first the compound with the highest concentration of 10 μM was prepared, and then the compound was diluted for 3 times in sequence. […] At the same time, a blank control group was set up, in which only an equal volume of culture medium was added without adding cells. Five replicate wells were set up for each group. The cells were placed in the incubator for further culture.
(§9) (3) After 72 hours, 8 μl of CCK-8 solution, which was double-diluted with 10 mM PBS, was added to each well, and the cells were shaken and placed in an incubator at 37° C. for further culture for 2 hours.
(§10) (4) The light absorbance value at 450 nm was read using a microplate reader, and the IC50 was calculated according to the absorbance value. The calculation method was the same as above.
(§11) (1) Sample information: PE039, PE052, and PE062 were all primary cell samples from pleural effusion of patients with small cell lung cancer, and LT015 was a primary cell sample from bronchoscopic biopsy of a patient with small cell lung cancer.
(§12) (2) CCK-8 detection was used to detect the IC50 values of different medicaments (compounds).

PE052 primary cells = test: Cell viability IC50 (CCK-8), primary cells PE052 from small cell lung cancer pleural effusion; assay type: cell-based; conditions: PE052, CCK-8
Experimental: as §1, §2, §3, §4, §5, §6, §7, §8, §9, §10, §11, §12

LT015 primary cells = test: Cell viability IC50 (CCK-8), primary cells LT015 from small cell lung cancer bronchoscopic biopsy; assay type: cell-based; conditions: LT015, CCK-8
Experimental: (1) The tissue blocks obtained from the tumor patients were transferred from the preservation solution to the pre-cooled HBSS buffer containing antibiotics, and the tissue blocks were washed for three times with the pre-cooled HBSS buffer.
(2) Tissue was sheared on ice with sterile surgical instruments until no obvious tissue blocks are visible to the naked eye, the tissue fluid was collected into a 15 ml centrifuge tube, and this process takes about 5 to 10 minutes.
(3) Digestive enzymes (collagenase I, collagenase IV and neutral protease being mixed in a ratio of 1:1:1, a concentration of stock solution was 10 mg/ml, diluted with PBS buffer or HBSS buffer, and the use concentration was 1 mg/ml) were added to the centrifuge tube, and after mixing well by pipetting, the centrifuge tube was placed in a 37° C. constant temperature incubator for 1 to 2 hours.
(4) High-glucose medium was added to the centrifuge tube to stop digestion. After mixing well, the cell precipitate was collected by centrifugation, and resuspended with MBM medium (Advanced DMEM-F12+20 ng/ml bFGF+50 ng/ml EGF+1% ITS-X+2% B27+10 μMY-27632+1% PS). The cell suspension was placed in a Matrigel-coated 24-well plate and cultured for 5 to 7 days. When the cell density in the well plate reaches 80-90%, the cells were sub-cultured into a 6 cm cell culture dish, and when they grew to a density of 80% to 90%, the cells were cryopreserved for preservation.
(1) Primary cells from lung cancer pleural effusion within 5 generations were cultured to the logarithmic growth phase. When the confluence reached about 90%, the cells were digested with 0.25% trypsin, and complete culture medium was added to collect the cells. After centrifugation at room temperature, the supernatant was discarded, and the cell precipitate was resuspended with fresh complete culture medium. After counting, the cells were placed at room temperature for later use. The cells were inoculated into a 384-well plate at a density of 2000 cells/well with a volume of 40 μl/well. The wells at the outermost circle of the plate were not inoculated with cells, and instead, added with sterile water to reduce evaporation of the culture medium.
as §8, §9, §10, §11, §12

NCI-H1975 cells = test: Cell viability IC50 (MTT), Gefitinib-resistant NCI-H1975 cells
Experimental: (§15) 1% sodium pyruvate was additionally added when culturing NCI-H1975 cells. All the cells were cultured in a constant temperature incubator containing 5% CO2 at 37° C.
(§16) (1) The cells were cultured to the logarithmic growth phase. […] After centrifugation at room temperature, the supernatant was discarded, and the cell precipitate was resuspended with fresh complete medium. After counting, the cells were placed at room temperature for later use.
(§17) (2) The cells were inoculated into a 96-well plate at a density of 4,000 cells/well with a volume of 100 μl/well. The wells at the outermost circle of the plate were not inoculated with cells, and instead, added with sterile water to reduce evaporation of the culture medium.
(§18) (3) After overnight culture of the cells, the medium was discarded, and a fresh medium containing different concentrations of compounds was added at 200 μl/well. The dilution method of the compound was as follows: first the compound with the highest concentration of 10 μM was prepared, and then the compound was diluted for 3 times in sequence. […] At the same time, a blank control group was set up, in which only an equal volume of culture medium was added without adding cells. Six replicate wells were set up for each group. The cells were placed in the incubator for further culture.
(§19) (4) After 72 hours, 20 μl of MTT solution (5 mg/ml) sterilized by filtration through a 0.22 m filter membrane was added to each well, and the cells were cultured in an incubator at 37° C. for another 4 hours.
(§20) (6) IC50 of the compounds for different cells was calculated based on the light absorption value of each group. Specifically, the absorbance value under treatment with different concentrations of compounds was first subtracted from the absorbance value of the blank well, and then the absorbance value of the 0 μM group was taken as 100% to calculate the cell survival rate after treatment with different concentrations of compounds. That is, survival rate=((ODexperimental well−ODblank control)/(ODnegative control−ODblank control))×100%. IC50 values were calculated based on the survival rate and concentration of the compound.

NCI-H1650 cells = test: Cell viability IC50 (MTT), Gefitinib- and Osimertinib-resistant NCI-H1650 cells; conditions: Homo sapiens, NCI-H1650, 72 h, read-out: cell viability IC50
Experimental: as §15, §16, §17, §18, §19, §20

NCI-H446 cells = test: Cell viability IC50 (CCK-8), small cell lung cancer cell line H446; assay type: cell-based; conditions: Homo sapiens, NCI-H446; H446, CCK-8
Experimental: (§13) Small cell lung cancer cell lines DMS114, NCI-H1688, NCI-H82, NCI-H146, and NCI-H446 cells were cultured in RPMI-1640 medium containing 10% fetal bovine serum and 1% penicillin-streptomycin. All the cells were cultured in a constant temperature incubator containing 5% CO2 at 37° C.
(§14) Small cell lung cancer is a highly heterogeneous malignant tumor, and its clinical treatment is mainly based on traditional chemotherapy (mainly platinum medicaments and etoposide). In order to study the anti-tumor activity of the compounds of the present disclosure in small cell lung cancer, the CCK-8 method was used to investigate the cell viability IC50 of compound 8 for five small cell lung cancer cell lines.

NCI-H1688 cells = test: Cell viability IC50 (CCK-8), small cell lung cancer cell line H1688; assay type: cell-based; conditions: NCI-H1688; H1688, CCK-8
Experimental: as §13, §14

NCI-H146 cells = test: Cell viability IC50 (CCK-8), small cell lung cancer cell line H146; assay type: cell-based; conditions: Homo sapiens, NCI-H146; H146, CCK-8
Experimental: as §13, §14

DMS114 cells = test: Cell viability IC50 (CCK-8), small cell lung cancer cell line DMS114; assay type: cell-based; conditions: Homo sapiens, DMS-114; DMS114, CCK-8
Experimental: as §13, §14

NCI-H82 cells = test: Cell viability IC50 (CCK-8), small cell lung cancer cell line H82; assay type: cell-based; conditions: Homo sapiens, NCI-H82; H82, CCK-8
Experimental: as §13, §14

PE043 primary cells = test: Cell viability IC50 (CCK-8), primary cells PE043 from lung adenocarcinoma pleural effusion resistant to EGFR-TKI; conditions: read-out: cell viability IC50
PE039 primary cells = test: Cell viability IC50 (CCK-8), primary cells PE039 from small cell lung cancer pleural effusion; assay type: cell-based; conditions: PE039, CCK-8
Experimental: as §1, §2, §3, §4, §5, §6, §7, §8, §9
(4) The light absorbance value at 450 nm was read using a microplate reader, and the IC50 was calculated according to the absorbance value. The calculation method was the same as above. […]

[1] = Homo sapiens, NCI-H1975, 72 h, read-out: cell viability IC50

For `COc1cc2c(Oc3ccc4[nH]c(C)cc4c3F)ccnc2cc1OCC1(N)CC1` [Anlotinib], the IC50 (PE062 primary cells) was 1500 nM, the IC50 (PE052 primary cells) was 9440 nM and the IC50 (LT015 primary cells) was 2070 nM.
Compound `CN1CCN(Cc2ccc(Nc3ncc(Cl)c(Nc4ccccc4S(=O)(=O)N(C)C)n3)cn2)CC1` [Compound 2, 2-((5-chloro-2-((6-((4-methylpiperazin-1-yl)methyl)pyridin-3-yl)amino)pyrimidin-4-yl)amino)-N,N-dimethylbenzenesulfonamide] has an IC50 (NCI-H1975 cells; [1]) of 86.4 nM and an IC50 (NCI-H1650 cells) of 466 nM.
In the case of `CN(C)CCN1Cc2ccc(Nc3ncc(Cl)c(Nc4ccccc4S(=O)(=O)N(C)C)n3)cc2C1` [Compound 3, 2-((5-chloro-2-((2-(2-(dimethylamino)ethyl)isodihydroindol-5-yl)amino)pyrimidin-4-yl)amino)-N,N-dimethylbenzenesulfonamide], the IC50 (NCI-H1975 cells; [1]) is reported as 28.3 nM and the IC50 (NCI-H1650 cells) is reported as 37.8 nM.
`CN(C)C1CCN(Cc2ccc(Nc3ncc(Cl)c(Nc4ccccc4S(=O)(=O)N(C)C)n3)cc2)C1` (centres unmarked) [Compound 4, 2-((5-chloro-2-((4-((3-(dimethylamino)pyrrolidin-1-yl)methyl)phenyl)amino)pyrimidin-4-yl)amino)-N,N-dimethylbenzenesulfonamide] gave an IC50 (NCI-H1975 cells; [1]) of 87.7 nM and an IC50 (NCI-H1650 cells) of 163 nM.
With `CN1CCN(Cc2ccc(Nc3ncc(Cl)c(Nc4ccncc4S(=O)(=O)N(C)C)n3)cc2)CC1` [Compound 6, 4-((5-chloro-2-((4-((4-methylpiperazin-1-yl)methyl)phenyl)amino)pyrimidin-4-yl)amino)-N,N-dimethylpyridine-3-sulfonamide] the IC50 (NCI-H1975 cells; [1]) was 47.7 nM and the IC50 (NCI-H1650 cells) was 250 nM.
With `CN1C2CCC1CN(Cc1ccc(Nc3ncc(Cl)c(Nc4ccccc4S(=O)(=O)N(C)C)n3)cc1)C2` [Compound 9, 2-((5-chloro-2-((4-((8-methyl-3,8-diazabicyclo[3.2.1]octan-3-yl)methyl)phenyl)amino)pyrimidin-4-yl)amino)-N,N-dimethylbenzenesulfonamide] the IC50 (NCI-H1975 cells; [1]) was 25.3 nM and the IC50 (NCI-H1650 cells) was 170 nM.
In the case of `C[C@@H]1CN(Cc2ccc(Nc3ncc(Cl)c(Nc4ccccc4S(=O)(=O)N(C)C)n3)cc2)C[C@H](C)N1C` [Compound 10, 2-((5-chloro-2-((4-(((3R,5S)-3,4,5-trimethylpiperazin-1-yl)methyl)phenyl)amino)pyrimidin-4-yl)amino)-N,N-dimethylbenzenesulfonamide], the IC50 (NCI-H1975 cells; [1]) is reported as 21.5 nM and the IC50 (NCI-H1650 cells) is reported as 136 nM.
Compound `COCCN1CCc2cc(Nc3ncc(Cl)c(Nc4ccccc4S(=O)(=O)N(C)C)n3)ccc2C1` [Compound 11, 2-((5-chloro-2-((2-(2-methoxyethyl)-1,2,3,4-tetrahydroisoquinolin-6-yl)amino)pyrimidin-4-yl)amino)-N,N-dimethylbenzenesulfonamide formate] has an IC50 (NCI-H1975 cells; [1]) of 29.1 nM and an IC50 (NCI-H1650 cells) of 32.5 nM.
`CNCCN1CCc2cc(Nc3ncc(Cl)c(Nc4ccccc4S(=O)(=O)N(C)C)n3)ccc2C1` [Compound 12, 2-((5-chloro-2-((2-(2-(methylamino)ethyl)-1,2,3,4-tetrahydroisoquinolin-6-yl)amino)pyrimidin-4-yl)amino)-N,N-dimethylbenzenesulfonamide] was tested, and the IC50 (NCI-H1975 cells; [1]) was 18.6 nM and the IC50 (NCI-H1650 cells) was 75.2 nM.
Compound `CN(C)CCN1CCc2cc(Nc3ncc(Cl)c(Nc4ccccc4S(=O)(=O)N(C)C)n3)ccc2C1` [Compound 13, 2-((5-chloro-2-((2-(2-(dimethylamino)ethyl)-1,2,3,4-tetrahydroisoquinolin-6-yl)amino)pyrimidin-4-yl)amino)-N,N-dimethylbenzenesulfonamide formate] has an IC50 (NCI-H1975 cells; [1]) of 19.8 nM and an IC50 (NCI-H1650 cells) of 67.3 nM.
With `CNS(=O)(=O)c1ccccc1Nc1nc(Nc2ccc(CN3C4CCC3CN(C)C4)cc2)ncc1Cl` [Compound 15, 2-((5-chloro-2-((4-((3-methyl-3,8-diazabicyclo[3.2.1]octan-8-yl)methyl)phenyl)amino)pyrimidin-4-yl)amino)-N-methylbenzenesulfonamide] the IC50 (NCI-H446 cells) was 6.54 nM, the IC50 (NCI-H1688 cells) was 9.16 nM and the IC50 (NCI-H146 cells) was 16.2 nM. It also gave an IC50 (DMS114 cells) of 8.53 nM.
`C[C@@H](Oc1cc(-c2cnn(C3CCNCC3)c2)cnc1N)c1c(Cl)ccc(F)c1Cl` [Crizotinib] gave an IC50 (PE062 primary cells) of 900 nM.
With `COc1cc([C@@H]2c3cc4c(cc3[C@@H](O[C@@H]3O[C@@H]5CO[C@@H](C)O[C@H]5[C@H](O)[C@H]3O)[C@H]3COC(=O)[C@H]23)OCO4)cc(OC)c1O` [Etoposide] the IC50 (PE062 primary cells) was 770 nM, the IC50 (NCI-H446 cells) was 1060 nM and the IC50 (NCI-H1688 cells) was 739 nM. For the same compound, the IC50 (NCI-H82 cells) was 545 nM, the IC50 (NCI-H146 cells) was 434 nM and the IC50 (DMS114 cells) was 917 nM. For the same compound, the IC50 (LT015 primary cells) was 48200 nM.
`Nc1ccn([C@@H]2O[C@H](CO)[C@@H](O)C2(F)F)c(=O)n1` [Gemcitabine] gave an IC50 (PE043 primary cells) of over 834000 nM.
With `C=CC(=O)Nc1cc(Nc2nccc(-c3cn(C)c4ccccc34)n2)c(OC)cc1N(C)CCN(C)C` [Osimertinib] the IC50 (PE062 primary cells) was 2740 nM, the IC50 (PE052 primary cells) was 568 nM and the IC50 (NCI-H1975 cells; Homo sapiens, NCI-H1975, 72 h, read-out: cell viability IC50, NCI-H1975 cells, 72 hours, MTT) was […]. It also gave an IC50 (NCI-H1975 cells; read-out: cell viability IC50, NCI-H1975 cells, 72 hours, MTT) of […], an IC50 (PE039 primary cells) of 3990 nM and an IC50 (NCI-H1650 cells) of 2750 nM. The IC50 (PE043 primary cells) was 3370 nM.
